# Key:
# [1] = test system: Staphylococcus aureus (SAUR 9213); test: MIC by standard agar dilution method; assay type: cell-based; conditions: Mueller Hinton agar, incubated overnight at 35° C., read-out: MIC
# From the text: The antibacterial agents of this invention have useful activity against a variety of organisms. The in vitro activity of compounds of this invention can be assessed by standard testing procedures such as the determination of minimum inhibitory concentration (MIC) by agar dilution as described in “Approved Standard. Methods for Dilution Antimicrobial Susceptibility Tests for Bacteria That Grow Aerobically”, 3rd. ed., published 1993 by the National Committee for Clinical Laboratory Standards, Villanova, Pa., USA. The in vitro MICs of test compounds are determined by a standard agar dilution method. A stock drug solution of each analog is prepared in the preferred solvent, usually DMSO:H2O (1:3). Serial 2-fold dilutions of each sample are made using 1.0 ml aliquots of sterile distilled water. To each 1.0 ml aliquot of drug is added 9 ml of molten Mueller Hinton agar medium. The drug-supplemented agar is mixed, poured into 15×100 mm petri dishes, and allowed to solidify and dry prior to inoculation. Vials of each of the test organisms are maintained frozen in the vapor phase of a liquid nitrogen freezer. Test cultures are grown overnight at 35° C. on the medium appropriate for the organism. Colonies are harvested with a sterile swab, and cell suspensions are prepared in Trypticase Soy broth (TSB) to equal the turbidity of a 0.5 McFarland standard. A 1:20 dilution of each suspension is made in TSB. The plates containing the drug supplemented agar are inoculated with a 0.001 ml drop of the cell suspension using a Steers replicator, yielding approximately 10^4 to 10^5 cells per spot. The plates are incubated overnight at 35° C. Following incubation the Minimum Inhibitory Concentration (MIC μg/ml), the lowest concentration of drug that inhibits visible growth of the organism, is read and recorded.
Compound,MIC [1] [µg/mL],melting point
"O=C(NO)[C@H]1CN(c2ccc(N3CCOCC3)c(F)c2)C(=O)O1 [Example 6, (5R)-(−)-3-[3-Fluoro-4-(4-morpholinyl)phenyl]-N-hydroxy-2-oxo-5-oxazolidinecarboxamide]",16,141 to 143 °C
"NC(=O)[C@H]1CN(c2cc(F)c(C3CCS(=O)(=O)CC3)c(F)c2)C(=O)O1 [Example 45, (5R)-3-[3,5-Difluoro-4-(Tetrahydro-2H-thiopyran-4-yl)phenyl]-2-oxo-5-oxazolidinecarboxamide S,S-dioxide]",4,243 to 245 °C
"CN1C(=O)CCc2cc(N3C[C@H](C(N)=O)OC3=O)cc(F)c21 [Example 82, (5R)-3-(8-Fluoro-1-methyl-2-oxo-1,2,3,4-tetrahydroquinolin-6-yl)-2-oxo-5-oxazolidinecarboxamide]",1,260 to 262 °C
"CNC(=O)[C@H]1CN(c2cc(F)c(N3CCOCC3)c(F)c2)C(=O)O1 [Example 42, (5R)-(−)-N-Methyl-3-[3,5-difluoro-4-(4-morpholinyl)phenyl]-2-oxo-5-oxazolidinecarboxamide]",4,179 to 181 °C
"Cn1c(=O)sc2cc(N3C[C@H](C(=O)NCCO)OC3=O)ccc21 [Example 34, (5R)-(−)-N-(2-Hydroxyethyl)-3-(2,3-dihydro-3-methyl-2-oxo-6-benzothiazolyl)-2-oxo-5-oxazolidinecarboxamide]",8,217 to 219 °C
"C=CCNC(=O)[C@H]1CN(c2ccc(N3CCOCC3)c(F)c2)C(=O)O1 [Example 3, (5R)-(−)-3-[3-Fluoro-4-(4-morpholinyl)phenyl]-N-allyl-2-oxo-5-oxazolidinecarboxamide]",8,167 to 169 °C
"C[C@@H]1Cc2cc(N3C[C@H](C(N)=O)OC3=O)ccc2N1C=O [Example 49, (5R)-3-[(2R)-2,3-Dihydro-1-formyl-2-methyl-1H-indol-5-yl]-2-oxo-5-oxazolidinecarboxamide]",8,228 to 230 °C
"NC(=O)[C@H]1CN(c2ccc(-c3ccncc3)c(F)c2)C(=O)O1 [Example 8, (5R)-(−)-3-[4-(4-Pyridyl)-3-fluorophenyl]-2-oxo-5-oxazolidinecarboxamide]",1,256 to 259 °C (dec.)
"CCn1c(=O)oc2cc(N3C[C@H](C(N)=O)OC3=O)ccc21 [Example 39, (5R)-(−)-3-(2,3-Dihydro-3-ethyl-2-oxo-6-benzoxazolyl)-2-oxo-5-oxazolidinecarboxamide]",1,234 to 236 °C
"NC(=O)[C@H]1CN(c2ccc(N3CC[S+]([O-])CC3)c(F)c2)C(=O)O1 [Example 21, (5R)-(−)-3-[3-Fluoro-4-(thiomorpholin-4-yl)phenyl]-2-oxo-5-oxazolidinecarboxamide S-oxide]",8,264 to 266 °C (dec.)
"NC(=O)[C@H]1CN(c2ccc(C3CCS(=O)(=O)CC3)c(F)c2)C(=O)O1 [Example 13, (5R)-(−)-3-[4-(Tetrahydro-2H-thiopyran-4-yl)-3-fluorophenyl]-2-oxo-5-oxazolidinecarboxamide S,S-dioxide]",2,229 to 231 °C (dec.)
"CNC(=O)[C@H]1CN(c2ccc3c(c2)oc(=O)n3C)C(=O)O1 [Example 51, (5R)-(−)-N-Methyl-3-(2,3-dihydro-3-methyl-2-oxo-6-benzoxazolyl)-2-oxo-5-oxazolidinecarboxamide]",2,304 to 306 °C
"Cn1c(=O)oc2cc(N3C[C@H](C(N)=O)OC3=O)ccc21 [Example 38, (5R)-(−)-3-(2,3-dihydro-3-methyl-2-oxo-6-benzoxazolyl)-2-oxo-5-oxazolidinecarboxamide]",1,> 260 °C
"NC(=O)[C@H]1CN(c2ccc(C3=CC[S+]([O-])CC3)c(F)c2)C(=O)O1 (stereo partly drawn) [Example 11, (5R)-3-[4-(3,6-Dihydro-2H-thiopyran-4-yl)-3-fluorophenyl]-2-oxo-5-oxazolidinecarboxamide S-oxide]",4,182 to 184 °C (dec.)
"CNC(=O)[C@H]1CN(c2cc(F)c3c(c2)CCC(=O)N3C)C(=O)O1 [Example 83, (5R)-N-Methyl-3-(8-fluoro-1-methyl-2-oxo-1,2,3,4-tetrahydroquinolin-6-yl)-2-oxo-5-oxazolidinecarboxamide]",2,264 to 265 °C
"CCn1c(=O)sc2cc(N3C[C@H](C(N)=O)OC3=O)ccc21 [Example 30, (5R)-(−)-3-(2,3-Dihydro-3-ethyl-2-oxo-6-benzothiazolyl)-2-oxo-5-oxazolidinecarboxamide]",1,211 to 212.5 °C
"CNC(=O)[C@H]1CN(c2ccc3c(c2)sc(=O)n3C)C(=O)O1 [Example 32, (5R)-(−)-N-Methyl-3-(2,3-dihydro-3-methyl-2-oxo-6-benzothiazolyl)-2-oxo-5-oxazolidinecarboxamide]",1,264 to 267 °C
"NC(=O)[C@H]1CN(c2ccc([C@H]3CC[S@+]([O-])CC3)cc2)C(=O)O1 [Example 27, (5R)-3-[4-(trans-tetrahydro-1-oxido-2H-thiopyran-4-yl)phenyl]-2-oxo-5-oxazolidinecarboxamide]",8,174 to 175 °C
"CC(C)n1c(=O)oc2cc(N3C[C@H](C(N)=O)OC3=O)ccc21 [Example 40, (5R)-(−)-3-(2,3-Dihydro-3-isopropyl-2-oxo-6-benzoxazolyl)-2-oxo-5-oxazolidinecarboxamide]",4,182.5 to 184 °C
"NC(=O)[C@H]1CN(c2ccc(-c3cccnc3)c(F)c2)C(=O)O1 [Example 7, (5R)-(−)-3-[4-(3-Pyridyl)-3-fluorophenyl]-2-oxo-5-oxazolidinecarboxamide]",2,240 to 242 °C (dec.)
"CCn1c(=O)sc2cc(N3C[C@H](C(=O)NC)OC3=O)ccc21 [Example 36, (5R)-(−)-N-Methyl-3-(2,3-dihydro-3-ethyl-2-oxo-6-benzothiazolyl)-2-oxo-5-oxazolidinecarboxamide]",2,227 to 229 °C
"Cn1c(=O)sc2cc(N3C[C@H](C(N)=O)OC3=O)ccc21 [Example 29, (5R)-(−)-3-(2,3-Dihydro-3-methyl-2-oxo-6-benzothiazolyl)-2-oxo-5-oxazolidinecarboxamide]",1,274 to 276 °C (dec.)
"CNC(=O)[C@H]1CN(c2ccc3c(c2)oc(=O)n3C(C)C)C(=O)O1 [Example 53, (5R)-(−)-N-Methyl-3-(2,3-dihydro-3-isopropyl-2-oxo-6-benzoxazolyl)-2-oxo-5-oxazolidinecarboxamide]",2,216 to 218 °C
"NC(=O)[C@H]1CN(c2ccc(N3CCOCC3)c(F)c2)C(=O)O1 [Example 1, (5R)-(−)-3-[3-Fluoro-4-(4-morpholinyl)phenyl]-2-oxo-5-oxazolidinecarboxamide]",4,185 to 187 °C (dec.)
"NC(=O)[C@H]1CN(c2ccc(N3Cc4cccnc4C3)c(F)c2)C(=O)O1 [Example 54, (5R)-3-[4-(5,7-Dihydro-6H-pyrrolo[3,4-b]pyridin-6-yl)-3-fluorophenyl]-2-oxo-5-oxazolidinecarboxamide]",0.5,257 °C (dec.)
"Cn1c(=O)sc2cc(N3C[C@H](C(=O)NCCF)OC3=O)ccc21 [Example 35, (5R)-N-(2-Fluoroethyl)-3-(2,3-dihydro-3-methyl-2-oxo-6-benzothiazolyl)-2-oxo-5-oxazolidinecarboxamide]",2,201 to 203 °C
"NC(=O)[C@H]1CN(c2ccc(N3CCN(C(=O)CO)CC3)c(F)c2)C(=O)O1 [Example 14, (5R)-(−)-3-[3-Fluoro-4-[4-(hydroxyacetyl)-1-piperazinyl]phenyl]-2-oxo-5-oxazolidinecarboxamide]",4,232 to 235 °C (dec.)
"CNC(=O)[C@H]1CN(c2ccc(N3Cc4cccnc4C3)c(F)c2)C(=O)O1 [Example 55, (5R)-N-Methyl-3-[4-(5,7-dihydro-6H-pyrrolo[3,4-b]pyridin-6-yl)-3-fluorophenyl]-2-oxo-5-oxazolidinecarboxamide]",1,275 °C (dec.)
"NC(=O)[C@H]1CN(c2ccc(C3CCOCC3)c(F)c2)C(=O)O1 [Example 10, (5R)-(−)-3-[4-(Tetrahydro-2H-pyran-4-yl)-3-fluorophenyl]-2-oxo-5-oxazolidinecarboxamide]",4,153 to 156 °C
"NC(=O)[C@H]1CN(c2cc(F)c(N3CCS(=O)(=O)CC3)c(F)c2)C(=O)O1 [Example 15, (5R)-(−)-3-[4-(Thiomorpholin-4-yl)-3,5-difluorophenyl]-2-oxo-5-oxazolidinecarboxamide S,S-dioxide]",2,245 to 248 °C (dec.)

# Reference: patent US7645781B2, “N-aryl-2-oxazolidinone-5-carboxamides and their derivatives” (Pfizer Inc, priority 2002, dated 2010)
